# From patent publication US8133871B2, “Dihydropseudoerythromycin derivatives” (The Kitasato Institute, priority 2005, dated 2012)
# Tested on: THP-1 cells
# Experiment: THP-1 differentiation induction-promoting activity
# Format: cell-based
# Settings: Homo sapiens, THP-1; lowest concentration necessary to show 50% activity relative to the activity value of erythromycin A at 100 μM; PMA 1-2 μM, 72-96 hr
# Method: As one index of the anti-inflammatory action of the compound of the present invention, the differentiation induction-promoting activity of THP-1 cell was measured. The measurement was performed as shown below.
# THP-1 cells (ATCC No. TIB-202) were adjusted to a concentration of 2×10^5 cells/ml with a medium (RPMI 1640), PMA was added thereto to a final concentration of 1-2 μM, and the mixture was dispensed to each well of a 96 well plate by 100 μl. A solution (100 μl) containing a test substance was adjusted to an appropriate concentration with the medium and added to each well. The mixture was stirred by gently shaking the plate, and incubated under 37° C., 5% CO2 conditions for 72-96 hr. Each well was washed with PBS, a medium containing the viable cell measurement reagent SF (Nacalai Tesque) was added at 100 μl/well and the mixture was incubated under the conditions of 37° C., 5% CO2 for 3-5 hr. The absorbance was measured with a plate reader.
# In the Table, the activity value is the lowest concentration necessary for the test compound to show a 50% activity value relative to the activity value of erythromycin A at 100 μM in this experiment.
# THP-1 differentiation induction-promoting activity: The lowest concentration necessary for each compound to show 50% activity relative to the activity value of erythromycin A at 100 μM.
row,SMILES,minimal effective concentration
1,"CC[C@@H](O)[C@@](C)(O)[C@@H]1OC(=O)[C@H](C)[C@@H](O[C@H]2CC(C)(OC)[C@@H](O)C(C)O2)[C@H](C)[C@@H](O[C@@H]2OC(C)CC(N(C)Cc3ccccc3)C2O)[C@@]2(C)CC(C)C(O2)[C@@H]1C (stereo partly shown) [EM902, de(3′-N-methyl)-3′-N-benzyl-9-dihydro-pseudoerythromycin A 6,9-epoxide]",30 µM
2,"CC[C@@H](O)[C@@](C)(O)[C@@H]1OC(=O)[C@H](C)[C@@H](O[C@H]2CC(C)(OC)[C@@H](O)C(C)O2)[C@H](C)[C@@H](O[C@@H]2OC(C)CC(N)C2O)[C@]2(C)CC(C)C(O2)[C@@H]1C (stereo partly shown) [EM903, bis-de(3′-N-methyl)-9-dihydro-pseudoerythromycin A 6,9-epoxide]",30 µM
3,"CC[C@@H](O)[C@@](C)(O)[C@@H]1OC(=O)[C@H](C)[C@@H](O[C@H]2CC(C)(OC)[C@@H](O)C(C)O2)[C@H](C)[C@@H](O[C@@H]2OC(C)CC(N(Cc3ccccc3)Cc3ccccc3)C2O)[C@@]2(C)CC(C)C(O2)[C@@H]1C (stereo partly shown) [EM904, bis-de(3′-N-methyl)-bis-(3′-N-benzyl)-9-dihydro-pseudoerythromycin A 6,9-epoxide]",10 µM
4,"COC1(C)C[C@H](O[C@H]2[C@H](C)[C@@H](O[C@@H]3OC(C)CC(N(C)C)C3O)[C@]3(C)CC(C)C(O3)[C@H](C)[C@H](C(C)=O)OC(=O)[C@@H]2C)OC(C)[C@@H]1O (stereo partly shown) [EM906, de[12-(1-hydroxypropyl)]-9-dihydro-12-oxo-pseudoerythromycin A 6,9-epoxide]",30 µM
5,"COC1(C)C[C@H](O[C@H]2[C@H](C)[C@@H](O[C@@H]3OC(C)CC(N(C)C)C3O)[C@]3(C)CC(C)C(O3)[C@H](C)[C@H](C(C)O)OC(=O)[C@@H]2C)OC(C)[C@@H]1O (stereo partly shown) [EM908, de[12-(1-hydroxypropyl)]-9-dihydro-pseudoerythromycin A 6,9-epoxide]",10 µM
6,"CC[C@@H]1O[C@@]1(C)[C@@H]1OC(=O)[C@H](C)[C@@H](O[C@H]2CC(C)(OC)[C@@H](O)C(C)O2)[C@H](C)[C@@H](O[C@@H]2OC(C)CC(N(C)C)C2O)[C@]2(C)CC(C)C(O2)[C@@H]1C (stereo partly shown) [EM909, 12,13-epoxy-9-dihydro-pseudoerythromycin A 6,9-epoxide]",30 µM
7,"CC[C@@H](O)[C@@](C)(O)[C@@H]1OC(=O)[C@H](C)[C@@H](O)[C@H](C)[C@@H](O[C@@H]2OC(C)CC(N(C)C)C2O)[C@]2(C)CC(C)C(O2)[C@@H]1C (stereo partly shown) [EM910, de(3-O-cladinosyl)-9-dihydro-pseudoerythromycin A 6,9-epoxide]",100 µM
8,"CC[C@@H](OC(C)=O)[C@@](C)(O)[C@@H]1OC(=O)[C@H](C)[C@@H](O[C@H]2CC(C)(OC)C(OC(C)=O)C(C)O2)[C@H](C)[C@@H](O[C@@H]2OC(C)CC(N(C)C)C2O)[C@]2(C)CC(C)C(O2)[C@@H]1C (stereo partly shown) [EM911, 4″,13-O-diacetyl-9-dihydro-pseudoerythromycin A 6,9-epoxide]",10 µM
9,"CC[C@@H](O)[C@@](C)(O)[C@@H]1OC(=O)[C@H](C)[C@@H](O[C@H]2CC(C)(OC)[C@@H](O)C(C)O2)[C@H](C)[C@@H](O[C@@H]2OC(C)CC(N(C)C)C2OC(C)=O)[C@]2(C)CC(C)C(O2)[C@@H]1C (stereo partly shown) [EM913, 2′-O-acetyl-9-dihydro-pseudoerythromycin A 6,9-epoxide]",30 µM
10,"CC[C@H]1OC(=O)O[C@@]1(C)[C@@H]1OC(=O)[C@H](C)C(=O)[C@H](C)[C@@H](O[C@@H]2OC(C)CC(N(C)C)C2OC(C)=O)[C@]2(C)CC(C)C(O2)[C@@H]1C (stereo partly shown) [EM917, 2′-O-acetyl-de(3-O-cladinosyl)-9-dihydro-3-keto-pseudoerythromycin A 6,9-epoxide 12,13-carbonate]",30 µM
11,"CC[C@H]1OC(=O)O[C@@]1(C)[C@@H]1OC(=O)[C@H](C)C(=O)[C@H](C)[C@@H](O[C@@H]2OC(C)CC(N(C)C)C2O)[C@]2(C)CC(C)C(O2)[C@@H]1C (stereo partly shown) [EM918, de(3-O-cladinosyl)-9-dihydro-3-keto-pseudoerythromycin A 6,9-epoxide 12,13-carbonate]",30 µM
12,"CC[C@@H](O)[C@@](C)(O)[C@@H]1OC(=O)[C@H](C)[C@@H](O)[C@H](C)[C@H](O[C@@H]2OC(C)CC(N(C)Cc3ccc(Cl)cc3)C2O)[C@@]2(C)CC(C)C(O2)[C@@H]1C (stereo partly shown) [EM925, de(3′-N-methyl)-3′-N-(p-chlorobenzyl)-de(3-O-cladinosyl)-9-dihydro-pseudoerythromycin A 6,9-epoxide]",30 µM
13,"CC[C@H]1OC(=O)O[C@@]1(C)[C@@H]1OC(=O)[C@H](C)C(=O)[C@H](C)[C@@H](O[C@@H]2OC(C)CC(N3CCOCC3)C2OC(C)=O)[C@]2(C)CC(C)C(O2)[C@@H]1C (stereo partly shown) [EM932, 2′-O-acetyl-de(3-O-cladinosyl)-9-dihydro-3-keto-de(3′-dimethylamino)-3′-morpholino-pseudoerythromycin A 6,9-epoxide 12,13-carbonate]",10 µM
14,"CC[C@H]1OC(=O)O[C@@]1(C)[C@@H]1OC(=O)[C@H](C)C(=O)[C@H](C)[C@@H](O[C@@H]2OC(C)CC(N3CCOCC3)C2O)[C@]2(C)CC(C)C(O2)[C@@H]1C (stereo partly shown) [EM935, de(3-O-cladinosyl)-9-dihydro-3-keto-de(3′-dimethylamino)-3′-morpholino-pseudoerythromycin A 6,9-epoxide 12,13-carbonate]",30 µM
15,"CC[C@H]1OC(=O)O[C@@]1(C)[C@@H]1OC(=O)[C@H](C)[C@@H](O)[C@H](C)[C@@H](O[C@@H]2OC(C)CC(N(C)C(=O)OCc3ccccc3)C2OC(=O)OCc2ccccc2)[C@]2(C)CC(C)C(O2)[C@@H]1C (stereo partly shown) [EM936, de(3′-N-methyl)-2′-O-3′-N-bis(benzyloxycarbonyl)-de(3-O-cladinosyl)-9-dihydro-pseudoerythromycin A 6,9-epoxide 12,13-carbonate]",10 µM
16,"CC[C@H]1OC(=O)O[C@@]1(C)[C@@H]1OC(=O)[C@H](C)[C@@H](O)[C@H](C)[C@@H](O[C@@H]2OC(C)CC(N3CCOCC3)C2O)[C@]2(C)CC(C)C(O2)[C@@H]1C (stereo partly shown) [EM946, de(3-O-cladinosyl)-9-dihydro-de(3′-dimethylamino)-3′-morpholino-pseudoerythromycin A 6,9-epoxide 12,13-carbonate]",100 µM
17,"CC[C@H]1OC(C)(C)O[C@@]1(C)[C@@H]1OC(=O)[C@H](C)C(=O)[C@H](C)[C@@H](O[C@@H]2OC(C)CC(N(C)Cc3ccc(Cl)cc3)C2O)[C@]2(C)CC(C)C(O2)[C@@H]1C (stereo partly shown) [EM947, de(3′-N-methyl)-3′-N-(p-chlorobenzyl)-de(3-O-cladinosyl)-9-dihydro-3-keto-pseudoerythromycin A 6,9-epoxide 12,13-isopropylidene Acetal]",10 µM
18,"CC[C@@H](O)[C@@](C)(O)[C@@H]1OC(=O)[C@H](C)C(=O)[C@H](C)[C@H](O[C@@H]2OC(C)CC(N(C)Cc3ccc(Cl)cc3)C2O)[C@]2(C)CC(C)C(O2)[C@@H]1C (stereo partly shown) [EM949, de(3′-N-methyl)-3′-N-(p-chlorobenzyl)-de(3-O-cladinosyl)-9-dihydro-3-keto-pseudoerythromycin A 6,9-epoxide]",10 µM

# Same assay, conditions: lowest concentration necessary to show 50% activity relative to the activity value of erythromycin A at 100 μM; PMA 1-2 μM, 72-96 hr
row,SMILES,THP-1 differentiation induction-promoting activity
1,"CO[C@]1(C)C[C@H](O[C@H]2[C@H](C)[C@@H](O[C@@H]3O[C@H](C)C[C@H](N(C)C)[C@H]3O)[C@@]3(C)C[C@@H](C)[C@H](O3)[C@H](C)[C@H](/C(C)=N/O)OC(=O)[C@@H]2C)O[C@@H](C)[C@@H]1O [EM907, de[12-(1-hydroxypropyl)]-9-dihydro-12-hydroxyoxime-pseudoerythromycin A 6,9-epoxide]",30
